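Each compound was tested at five concentrations against cells in 96-well plates for 48 hours. TGI marks complete inhibition of growth.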
How the values were obtained:
Experiment in all cases: NCI-60 cell line screen, 48 h
786-0 renal = tested on: 786-0 renal
A498 renal = tested on: A498 renal
A549 NSCLC = tested on: A549 NSCLC
ACHN renal = tested on: ACHN renal
CAKI-1 renal = tested on: CAKI-1 renal
CCRF-CEM leukemia = tested on: CCRF-CEM leukemia
COLO 205 colon = tested on: COLO 205 colon
DLD-1 colon = tested on: DLD-1 colon
DMS 114 small cell lung = tested on: DMS 114 small cell lung
DMS 273 small cell lung = tested on: DMS 273 small cell lung
EKVX NSCLC = tested on: EKVX NSCLC
HCC-2998 colon = tested on: HCC-2998 colon
HCT-116 colon = tested on: HCT-116 colon
HCT-15 colon = tested on: HCT-15 colon
HL-60(TB) leukemia = tested on: HL-60(TB) leukemia
HOP-18 NSCLC = tested on: HOP-18 NSCLC
HOP-62 NSCLC = tested on: HOP-62 NSCLC
HOP-92 NSCLC = tested on: HOP-92 NSCLC
HT29 colon = tested on: HT29 colon
IGROV1 ovarian = tested on: IGROV1 ovarian
K-562 leukemia = tested on: K-562 leukemia
KM12 colon = tested on: KM12 colon
KM20L2 colon = tested on: KM20L2 colon
LOX IMVI melanoma = tested on: LOX IMVI melanoma
LXFL 529 NSCLC = tested on: LXFL 529 NSCLC
M14 melanoma = tested on: M14 melanoma
M19-MEL melanoma = tested on: M19-MEL melanoma
MALME-3M melanoma = tested on: MALME-3M melanoma
MOLT-4 leukemia = tested on: MOLT-4 leukemia
NCI-H226 lung = tested on: NCI-H226 lung
NCI-H23 lung = tested on: NCI-H23 lung
NCI-H460 lung = tested on: NCI-H460 lung
NCI-H522 lung = tested on: NCI-H522 lung
OVCAR-3 ovarian = tested on: OVCAR-3 ovarian
OVCAR-4 ovarian = tested on: OVCAR-4 ovarian
OVCAR-5 ovarian = tested on: OVCAR-5 ovarian
OVCAR-8 ovarian = tested on: OVCAR-8 ovarian
RXF 393 renal = tested on: RXF 393 renal
SF-268 CNS = tested on: SF-268 CNS
SF-295 CNS = tested on: SF-295 CNS
SF-539 CNS = tested on: SF-539 CNS
SK-MEL-28 melanoma = tested on: SK-MEL-28 melanoma
SK-MEL-5 melanoma = tested on: SK-MEL-5 melanoma
SN12C renal = tested on: SN12C renal
SNB-19 CNS = tested on: SNB-19 CNS
SNB-75 CNS = tested on: SNB-75 CNS
SNB-78 CNS = tested on: SNB-78 CNS
SR leukemia = tested on: SR leukemia
SW-620 colon = tested on: SW-620 colon
TK-10 renal = tested on: TK-10 renal
U251 CNS = tested on: U251 CNS
UACC-257 melanoma = tested on: UACC-257 melanoma
UACC-62 melanoma = tested on: UACC-62 melanoma
UO-31 renal = tested on: UO-31 renal
XF 498 CNS = tested on: XF 498 CNS
RPMI-8226 leukemia = tested on: RPMI-8226 leukemia
RXF-631 renal = tested on: RXF-631 renal
SK-MEL-2 melanoma = tested on: SK-MEL-2 melanoma
SK-OV-3 ovarian = tested on: SK-OV-3 ovarian

Measured: TGI

Cc1cc(N(CCC#N)CCC#N)ccc1/C=C1/CN(N2C(=O)/C(=C/c3ccc(N(CCC#N)CCC#N)cc3C)N=C2c2ccccc2)C(c2ccccc2)=N1
51.1 µM: SNB-75 CNS
75.9 µM: TK-10 renal
76.8 µM: RXF 393 renal
not listed: RPMI-8226 leukemia | RXF-631 renal | SK-MEL-2 melanoma | SK-OV-3 ovarian
> 100 µM: all other assays above

CSc1ccc(-c2cn3ccsc3n2)c(O)c1
> 57.3 µM: SF-539 CNS
43.3 µM: 786-0 renal
> 55.1 µM: SW-620 colon
> 87.4 µM: NCI-H460 lung
98.7 µM: OVCAR-4 ovarian
> 65 µM: RPMI-8226 leukemia
> 62.7 µM: COLO 205 colon
> 63.1 µM: HL-60(TB) leukemia
> 94.7 µM: SNB-75 CNS
> 60.2 µM: K-562 leukemia
> 82.2 µM: LXFL 529 NSCLC
> 60.9 µM: CCRF-CEM leukemia | DMS 114 small cell lung
> 55.8 µM: HCT-15 colon
> 67.3 µM: HCT-116 colon
> 56.5 µM: LOX IMVI melanoma
88.3 µM: SR leukemia
not listed: M19-MEL melanoma | RXF 393 renal
> 100 µM: all other assays above
